Reference: the NIST ThermoML archive (doi:10.1021/je400951k)

C=CC(C)CCC=C(C)C (stereo unspecified) [3,7-dimethyl-1,6-octadiene]
Liquid, Closed cell (Static) method
Settings | vapor or sublimation pressure [kPa]
316.5 K | 1.26
322.57 K | 1.76
327.44 K | 2.26
334.96 K | 3.26
340.66 K | 4.26
345.44 K | 5.26
349.51 K | 6.26
356.16 K | 8.25
361.68 K | 10.23
373.78 K | 16.25
379.02 K | 20.26
385.62 K | 25.26
391.11 K | 30.26

O [water]
Liquid, Closed cell (Static) method
Settings | vapor or sublimation pressure [kPa]
292.54 K | 2.16
303.48 K | 4.43
310.23 K | 6.19
315.78 K | 8.497
319.82 K | 10.5
327.62 K | 15.71
334.02 K | 20.83
343.07 K | 30.04

C=CC(C)CCCC(C)(C)O (stereo unspecified) [2,6-dimethyl-7-octen-2-ol]
Liquid, Closed cell (Static) method
Settings | vapor or sublimation pressure [kPa]
351.52 K | 0.82
354.37 K | 1.015
360.41 K | 1.516
365.22 K | 2.03
372.31 K | 3.024
377.4 K | 4.017
381.86 K | 5.015
388.97 K | 7.03
394.58 K | 9.035
401.82 K | 12.04
407.61 K | 15.04
415.17 K | 20.03
421.59 K | 25.04

CCCCCCCCO [octan-1-ol]
Liquid, Closed cell (Static) method
Settings | vapor or sublimation pressure [kPa]
358.05 K | 1.088
363.99 K | 1.527
368.73 K | 2.016
381.98 K | 4.073
393.36 K | 7.08
401.09 K | 10.04
410.79 K | 15.04
418.15 K | 20.03
429.75 K | 30.2

C[C@H]1CC[C@@H]2C[C@H]1C2(C)C (racemic) [(1RS,2SR,5RS)-2,6,6-trimethylbicyclo[3.1.1]heptane]
Liquid, Closed cell (Static) method
Settings | vapor or sublimation pressure [kPa]
330.27 K | 2.04
338.5 K | 3.03
344.71 K | 4.015
349.8 K | 4.98
357.77 K | 7.015
360.94 K | 8.015
366.78 K | 10.04
373.45 K | 13.04
379.03 K | 16.05
385.72 K | 20.04
392.24 K | 25.05
397.94 K | 30.04
407.54 K | 40.03
415.01 K | 50.03

CC(=O)O[C@@H]1C[C@H]2CC[C@]1(C)C2(C)C (relative stereo)
Liquid, Closed cell (Static) method
Settings | vapor or sublimation pressure [kPa]
381.09 K | 2.004
390.08 K | 3.021
397.1 K | 4.013
402.69 K | 5.01
407.45 K | 6.023
411.6 K | 7.027
414.92 K | 8.014
418.66 K | 9.042
421.67 K | 10.03
427.93 K | 12.04
434.61 K | 15.02
442.35 K | 19.12
452.64 K | 26.01
457.89 K | 30.15
463.13 K | 35
468.12 K | 40.12
472.63 K | 45.25

C=C1C2CCC(C2)C1(C)C (stereo unspecified) [2,2-dimethyl-3-methylenebicyclo[2.2.1]heptane]
Settings | vapor or sublimation pressure [kPa]
309.7 K, Metastable liquid, Closed cell (Static) method | 1.007
322.72 K, Closed cell (Static) method, Liquid | 2.026
331.06 K, Closed cell (Static) method, Liquid | 3.053
337.27 K, Closed cell (Static) method, Liquid | 4.056
342.04 K, Closed cell (Static) method, Liquid | 5.043
346.21 K, Closed cell (Static) method, Liquid | 6.007
350.07 K, Closed cell (Static) method, Liquid | 7.068
353.23 K, Closed cell (Static) method, Liquid | 8.029
355.98 K, Closed cell (Static) method, Liquid | 9.003
358.83 K, Closed cell (Static) method, Liquid | 10.07
365.69 K, Closed cell (Static) method, Liquid | 13.05
369.58 K, Closed cell (Static) method, Liquid | 15.06
378.51 K, Closed cell (Static) method, Liquid | 20.12
384.98 K, Closed cell (Static) method, Liquid | 25
390.65 K, Closed cell (Static) method, Liquid | 29.95
399.95 K, Closed cell (Static) method, Liquid | 40.04
407.61 K, Closed cell (Static) method, Liquid | 50.02

C=C(C)C1CC=C(C)CC1 (stereo unspecified) [1-methyl-4-(1-methylethenyl)cyclohexene]
Liquid, Closed cell (Static) method
Settings | vapor or sublimation pressure [kPa]
346.96 K | 3.01
353.19 K | 4.013
358.22 K | 5.008
362.25 K | 6.002
366.08 K | 7.018
369.31 K | 8.018
372.54 K | 9.043
375.27 K | 10.02
379.93 K | 12.04
386.12 K | 15.04
394.56 K | 20.01
401.29 K | 25.04
407.1 K | 30.09
416.21 K | 39.91
420.21 K | 44.8
